Test [1] relates to caspase 3/7 activity in NCI-H358 cells. The experiment in a line: Activated Caspase 3/7 assay in spheroids. Particulars: NCI-H358 spheroid cultures. The class given is cell-based, human. Here is the method:
Activated Caspase 3/7 Assay in Spheroids. […] Immediately after seeding, cells were spun down at 1000 RPM for 5 minutes, and incubated at 37° C. in 5% CO2 for five days to allow for spheroid formation. Spheroid formation was confirmed visually. […] Caspase 3/7 activity was measured using the Caspase-Glo 3/7 Assay System (Promega), following the manufacturer's instructions. After addition of Caspase-Glo reagent, the well contents were pipetted several times and incubated at room temperature in the dark for 45 minutes to allow thorough cell lysis. 50 μL of the lysate/reaction was transferred to an opaque white 96-well ½ area plates (Perkin Elmer). Luminescence was read in an EnVision Multilabel Plate Reader (Perkin Elmer). Assay data was plotted using Prism 7 (GraphPad) software.

The next test deals with YUHEF melanoma cell line. Particulars: YUHEF (NF1 Q853*/FS-indel), 3D culture. Here is the method: (§1) To evaluate cell viability in 3D culture, cells in logarithmic growth phase were plated in growth medium containing 0.65% methylcellulose at an optimum seeding density. Cells were incubated overnight prior to treatment with different concentrations of the test article. Cells were cultured for an additional seven days and cell viability assessed using the CellTiterGlo™ (CTG) reagent, according to the manufacturer's instructions. In some instances, cells were grown in 3D culture as spheroids. Briefly, 2500 cells/well were seeded in round bottom ultra-low attachment 96-well plates (Corning) in growth media supplemented with 10% fetal bovine serum and 1% penicillin/streptomycin, and allowed to form spheroids for 72 hours at 37° C. in 5% CO2. […] Following drug exposure for five days, cell viability in spheroids was determined using the CellTiter-Glo assay kit. H1838 cells were seeded at 5×10^3 cells per well of a 12-well plate. After one day in culture, cells were treated with the test article, which was then replenished every three days.

In another test the test system is NF1 LOF cell lines. The conditions noted are these: 3D culture, CTG Day 7. How it is done:
as §1

The subject of test [2] is MiaPaca-2 KRas G12C xenograft. As to the kind of experiment: Pancreatic MiaPaca-2 xenograft. It is filed as in vivo, mice. The source says: Similar methods were used to evaluate efficacy of test articles in the pancreatic MiaPaca-2 KRas^G12C xenograft model. Balb/c nude mice (6-8 weeks old) were implanted with […] MiaPaca-2 tumor cells in 50% Matrigel subcutaneously in the flank. […] Administration of test articles and study design are as described above for H358 xenograft model.

The next test has as its system H358 KRas G12C xenograft. The experiment in a line: NSCLC H358 xenograft, athymic nude mice. It is filed as in vivo. Particulars: oral administration. Here is the method:
Compound A or Compound B were administered by oral gavage daily. The positive control, paclitaxel (30 mg/kg iv) in 5% ethanol, 5% cremophor EL, in 5% dextrose in deionized water was administered once every five days. Trametinib (1 mg/kg PO in 0.5% Methylcellulose+0.5% Tween 80) was administered by oral gavage daily. The study endpoint was defined as a mean tumor volume of 2000 mm^3 in the control group or 22 days, whichever came first. Mean tumor volume data are reported for all animals that remained on study.

For another test, the system named is RAS-GTP in A375 cells. The experiment in a line: RAS-GTP pulldown (Raf-RBD). Particulars: A375 (Class I BRAF V600E). It is filed as cell-based. How it is done: (§2) To determine the effects of small molecules on levels of activated RAS-GTPase, cell lines of interest were cultured under standard 2D culture conditions. Cells were seeded and following overnight incubation incubated at 37° C. with vehicle (DMSO) or test article(s). After an appropriate incubation period, cells were washed and cell lysis buffer added to prepare a cell lysate. The levels of Ras-GTP in the lysates were determined using affinity purification of a Raf-RBD (Ras binding domain of Raf)/GTP-Ras complex. In one approach, the Pierce Active Ras Pulldown and Detection Kit was used. Briefly, clarified lysates (500 μg total protein, quantified by BCA) were mixed with glutathione resin, which had been preincubated with GST-Raf-RBD. The mixture was vortexed and incubated at 4° C. for 1 hour with gentle rocking. The resin was washed three times with lysis buffer and bound Ras-GTP eluted by addition of 2× reducing sample buffer. Eluted proteins were separated by SDS-PAGE using a 4-15% Tris-glycine gel (BioRad). Proteins were transferred to a nitrocellulose membrane for western blot using an anti-Ras antibody (Thermofisher, 1:200) and a Licor IRDye-800 anti-mouse secondary antibody (1:20,000). The Licor Odyssey CLx was used for visualization.

A further test deals with RAS-GTP in MeWo cells. As to the kind of experiment: RAS-GTP pulldown (Raf-RBD). The conditions noted are these: MeWo (NF1 LOF). It is filed as cell-based. Here is the method:
as §2

A further test deals with RAS-GTP in Cal-12T cells. The experiment in a line: RAS-GTP pulldown (Raf-RBD). The class given is cell-based. Particulars: Cal-12T (Class III BRAF G466V/+). Here is the method:
as §2

In test [3] the test system is RAS-GTP in NCI-H1666 cells. The experiment in a line: RAS-GTP pulldown (Raf-RBD). It is filed as cell-based. Particulars: NCI-H1666 (Class III BRAF G466V/+). How it is done:
as §2

Test [4] has as its system RAS-GTP in NCI-H508 cells. As to the kind of experiment: RAS-GTP pulldown (Raf-RBD). It is filed as cell-based. Particulars: NCI-H508 (Class III BRAF G596R/+). How it is done: as §2
The subject of another test is Calu-6. The experiment in a line: 3D cell viability (CTG). It is filed as cell-based. Particulars: Homo sapiens; Calu-6, KRAS Q61K, 3D culture.
The next test deals with ASPC-1. As to the kind of experiment: 3D cell viability (CTG). It is filed as cell-based. Particulars: Homo sapiens, ASPC1; ASPC-1, KRAS G12D, 3D culture.
For a further test, the system named is NCI-H1155. As to the kind of experiment: 3D cell viability (CTG). The class given is cell-based. The conditions noted are these: Homo sapiens; NCI-H1155, KRAS Q61H, 3D culture.
Another test relates to NCI-H1792. The experiment in a line: 3D cell viability (CTG). It is filed as cell-based. Particulars: Homo sapiens; NCI-H1792, KRAS G12C, 3D culture.
Another test deals with NCI-H2009. As to the kind of experiment: 3D cell viability (CTG). The class given is cell-based. The conditions noted are these: Homo sapiens; NCI-H2009, KRAS G12A, 3D culture.
The subject of the next test is T84. As to the kind of experiment: 3D cell viability (CTG). The class given is cell-based. The conditions noted are these: Homo sapiens; T84, KRAS G13D, 3D culture.
A further test has as its system HPAC. The experiment in a line: 3D cell viability (CTG). The class given is cell-based. The conditions noted are these: Homo sapiens, KRAS G12D, 3D culture.
Another test has as its system NCI-H1573. The experiment in a line: 3D cell viability (CTG). The class given is cell-based. The conditions noted are these: Homo sapiens; NCI-H1573, KRAS G12A, 3D culture.
The test system of the next test is LoVo. The experiment in a line: 3D cell viability (CTG). It is filed as cell-based. Particulars: Homo sapiens, KRAS G13D, 3D culture.

Experimental findings from patent publication US11596633B2, “SHP2 inhibitor compositions and methods for treating cancer” (Revolution Medicines, Inc., priority 2017, dated 2023) are described below.

Broadly, the IC50 is the concentration that inhibits the measured activity by half. A higher IC50 goes with weaker potency.

The structures appear in SMILES notation.

Protocol for LoVo: (§3) To evaluate cell viability in 3D culture, cells in logarithmic growth phase were plated in growth medium containing 0.65% methylcellulose at an optimum seeding density. Cells were incubated overnight prior to treatment with different concentrations of the test article. Cells were cultured for an additional seven days and cell viability assessed using the CellTiterGlo™ (CTG) reagent, according to the manufacturer's instructions. In some instances, cells were grown in 3D culture as spheroids. Briefly, 2500 cells/well were seeded in round bottom ultra-low attachment 96-well plates (Corning) in growth media supplemented with 10% fetal bovine serum and 1% penicillin/streptomycin, and allowed to form spheroids for 72 hours at 37° C. in 5% CO2. […] Following drug exposure for five days, cell viability in spheroids was determined using the CellTiter-Glo assay kit. […] After one day in culture, cells were treated with the test article, which was then replenished every three days. Cells were maintained in culture for 10 days until the control wells reached confluency at which time the cells were fixed and stained with crystal violet.
Protocol for NCI-H1792: as §3

Consider `Cc1nc(N2CCC3(CC2)CO[C@@H](C)[C@H]3N)c(CO)nc1-c1cccc(Cl)c1Cl` [Compound B], for which, in test [1], the “caspase 3/7 activity” value is “robust caspase 3/7 activation”. Also, the effect on proliferation result in the test on YUHEF melanoma cell line is listed as “No effect”. Also, in the test with NF1 LOF cell lines, the “NF1 LOF cell lines whose proliferation exhibited sensitivity” value is reported as 3/4. Moreover, the “reduction in tumor volume compared with trametinib” value in test [2] (30 mg/kg PO qd, trametinib 1 mg/kg PO, MiaPaca-2 model) is reported as “greater than trametinib”. For the same molecule, the tumor volume entry in test [2] (oral administration, MiaPaca-2 xenograft) is given as “dose-dependent decrease”; with H358 KRas G12C xenograft, “dose-dependent decrease”. Besides, the RAS-GTP levels entry in the test with RAS-GTP in A375 cells is recorded as “failed to suppress”; in the test on RAS-GTP in MeWo cells, “downregulation”; in the test with RAS-GTP in Cal-12T cells, “suppression”; in [3] it was “suppression”; in test [4], “suppression”.

On to `Nc1nc(N2CCC3(CCC[C@H]3N)CC2)cnc1Sc1ccnc(Cl)c1Cl` [Compound A], for which the IC50 was over 10 µM in the test on Calu-6; over 10 µM in the test with ASPC-1; over 10 µM in the test with NCI-H1155; 1.2 µM in the test on NCI-H1792; 0.3 µM in the test with NCI-H2009; over 10 µM with T84. In addition, the IC50 was over 10 µM in the test on HPAC, 0.2 µM with NCI-H1573 and over 10 µM with LoVo.
